Measurements from the supplement of paper PMC10307832.

Tests used:
Test in all cases: relative viability (nuclei count vs DMSO), 5 days (fraction); higher = more cells survive
Everolimus + Navitoclax = compound: CO[C@H]1C[C@@H]2CC[C@@H](C)[C@@](O)(O2)C(=O)C(=O)N2CCCC[C@H]2C(=O)O[C@H]([C@H](C)C[C@@H]2CC[C@@H](OCCO)[C@H](OC)C2)CC(=O)[C@H](C)/C=C(\C)[C@@H](O)[C@@H](OC)C(=O)[C@H](C)C[C@H](C)/C=C/C=C/C=C/1C [Everolimus] + CC1(C)CCC(c2ccc(Cl)cc2)=C(CN2CCN(c3ccc(C(=O)NS(=O)(=O)c4ccc(N[C@H](CCN5CCOCC5)CSc5ccccc5)c(S(=O)(=O)C(F)(F)F)c4)cc3)CC2)C1 [Navitoclax] (partner 0.5 µM)
Summary of the method: (§1)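 Cells from lung cancer lines were seeded into 1536-well plates and, one day later, dosed by pin tool. Treatments were either a single drug or a fixed dose of an anchor drug with five library-drug doses (not always all listed) in √10 steps. After 5 days, nuclei were stained in a one-step fixation (final 0.05% Triton X-100, 1% formaldehyde, 1 ug/ml Hoechst) and counted on 4× images, and relative viability is the treated-to-vehicle nuclei ratio, as the median of duplicate plates.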

Everolimus + Crizotinib = compound: CO[C@H]1C[C@@H]2CC[C@@H](C)[C@@](O)(O2)C(=O)C(=O)N2CCCC[C@H]2C(=O)O[C@H]([C@H](C)C[C@@H]2CC[C@@H](OCCO)[C@H](OC)C2)CC(=O)[C@H](C)/C=C(\C)[C@@H](O)[C@@H](OC)C(=O)[C@H](C)C[C@H](C)/C=C/C=C/C=C/1C [Everolimus] + C[C@@H](Oc1cc(-c2cnn(C3CCNCC3)c2)cnc1N)c1c(Cl)ccc(F)c1Cl [Crizotinib] (partner 1 µM)
Summary of the method: as §1

Everolimus + Tozasertib = compound: CO[C@H]1C[C@@H]2CC[C@@H](C)[C@@](O)(O2)C(=O)C(=O)N2CCCC[C@H]2C(=O)O[C@H]([C@H](C)C[C@@H]2CC[C@@H](OCCO)[C@H](OC)C2)CC(=O)[C@H](C)/C=C(\C)[C@@H](O)[C@@H](OC)C(=O)[C@H](C)C[C@H](C)/C=C/C=C/C=C/1C [Everolimus] + Cc1cc(Nc2cc(N3CCN(C)CC3)nc(Sc3ccc(NC(=O)C4CC4)cc3)n2)n[nH]1 [Tozasertib] (partner 0.1 µM)
Summary of the method: as §1

Everolimus + Vorinostat = compound: CO[C@H]1C[C@@H]2CC[C@@H](C)[C@@](O)(O2)C(=O)C(=O)N2CCCC[C@H]2C(=O)O[C@H]([C@H](C)C[C@@H]2CC[C@@H](OCCO)[C@H](OC)C2)CC(=O)[C@H](C)/C=C(\C)[C@@H](O)[C@@H](OC)C(=O)[C@H](C)C[C@H](C)/C=C/C=C/C=C/1C [Everolimus] + O=C(CCCCCCC(=O)Nc1ccccc1)NO [Vorinostat] (partner 1 µM)
Summary of the method: as §1

Cell Line | relative viability (Everolimus + Navitoclax; first compound 0.01 µM) | relative viability (Everolimus + Navitoclax; first compound 0.03162 µM) | relative viability (Everolimus + Navitoclax; first compound 0.1 µM) | relative viability (Everolimus + Navitoclax; first compound 0.3162 µM) | relative viability (Everolimus + Navitoclax; first compound 1 µM) | relative viability (Everolimus + Crizotinib; first compound 0.01 µM) | relative viability (Everolimus + Crizotinib; first compound 0.03162 µM) | relative viability (Everolimus + Crizotinib; first compound 0.1 µM) | relative viability (Everolimus + Crizotinib; first compound 0.3162 µM) | relative viability (Everolimus + Crizotinib; first compound 1 µM) | relative viability (Everolimus + Tozasertib; first compound 0.01 µM) | relative viability (Everolimus + Tozasertib; first compound 0.03162 µM) | relative viability (Everolimus + Tozasertib; first compound 0.1 µM) | relative viability (Everolimus + Tozasertib; first compound 0.3162 µM) | relative viability (Everolimus + Tozasertib; first compound 1 µM) | relative viability (Everolimus + Vorinostat; first compound 0.01 µM) | relative viability (Everolimus + Vorinostat; first compound 0.03162 µM) | relative viability (Everolimus + Vorinostat; first compound 0.1 µM) | relative viability (Everolimus + Vorinostat; first compound 0.3162 µM) | relative viability (Everolimus + Vorinostat; first compound 1 µM)
NCI-H2405 | 0.672 | 0.63 | 0.53 | 0.662 | 0.452 | 0.792 | 0.693 | 0.683 | 0.696 | 0.659 | 0.832 | 0.729 | 0.717 | 0.762 | 0.657 | 0.696 | 0.679 | 0.652 | 0.606 | 0.75
HCC-15 | 0.691 | 0.629 | 0.512 | 0.637 | 0.512 | 0.931 | 0.887 | 0.791 | 0.829 | 0.75 | 0.483 | 0.457 | 0.437 | 0.365 | 0.272 | 0.937 | 0.862 | 0.767 | 0.753 | 0.77
PC-3 [JPC-3] | 0.763 | 0.676 | 0.577 | 0.664 | 0.568 | 1.02 | 0.992 | 0.911 | 0.96 | 1.02 | 0.927 | 0.806 | 0.849 | 0.868 | 0.873 | 0.693 | 0.498 | 0.54 | – | 0.566
NCI-H1944 | 0.697 | 0.668 | 0.555 | 0.628 | 0.571 | 0.82 | 0.878 | 0.751 | 0.827 | 0.697 | 0.215 | 0.236 | 0.205 | 0.224 | 0.185 | 0.373 | 0.376 | 0.315 | 0.44 | 0.336
HARA | 1.14 | 1.2 | 1.12 | 1.11 | 0.898 | 1 | 1.12 | 0.928 | 0.986 | 0.952 | 0.226 | 0.126 | – | 0.116 | 0.293 | 0.431 | 0.494 | 0.407 | 0.371 | 0.485
NCI-H2126 | 0.515 | 0.455 | 0.4 | 0.492 | 0.485 | 0.755 | 0.736 | 0.671 | 0.721 | 0.665 | 0.64 | 0.609 | 0.52 | 0.637 | 0.568 | 0.546 | 0.482 | 0.407 | 0.553 | 0.497
LXF-289 | 0.99 | 1.04 | 0.958 | 0.96 | 0.957 | 0.885 | 0.978 | 0.904 | 0.88 | 0.888 | 0.217 | 0.217 | 0.162 | 0.205 | 0.193 | 0.909 | 0.831 | 0.817 | 0.987 | 0.934
NCI-H460 | 0.998 | 1.11 | 0.704 | 1.1 | 0.779 | 0.783 | 0.738 | 0.808 | 0.845 | 0.872 | 0.719 | 0.698 | 0.603 | 0.538 | 0.569 | 0.621 | 0.617 | 0.486 | 0.625 | 0.372
NCI-H2170 | 0.235 | 0.22 | 0.202 | 0.184 | 0.236 | 0.59 | 0.587 | 0.455 | 0.537 | 0.49 | 0.443 | 0.428 | 0.461 | 0.518 | 0.399 | 0.326 | 0.314 | 0.27 | 0.309 | 0.338
NCI-H2009 | 1.04 | 1.09 | 0.898 | 0.814 | 0.836 | 0.693 | 0.856 | 0.612 | 0.646 | 0.763 | 0.576 | 0.65 | 0.545 | 0.612 | 0.491 | 0.563 | 0.611 | 0.54 | 0.54 | 0.503
